Laboratory results from US10570108B2, “Substituted benzofuran compounds for the treatment of hepatitis C” (BRISTOL-MYERS SQUIBB COMPANY, priority 2015, dated 2020).

Tested on: HCV replicon
Assay: HCV replicon luciferase assay
Format: cell-based
Conditions: Hepatitis C virus, Huh-7, 72 h
Procedure: Cell lines. The cell lines used to evaluate compounds consist of a human hepatocyte derived cell line (Huh-7) that constitutively expresses a genotype 1b (Con-1) HCV replicon or a genotype 1b (Con-1) HCV replicon with an asparagine replacing the cysteine at amino acid 316, or a genotype 2a (JFH-1) replicon, containing a Renilla luciferase reporter gene. These cells were maintained in Dulbecco's modified Eagle medium (DMEM) containing 10% FBS, 100 U/mL penicillin/streptomycin and 1.0 mg/mL G418.
HCV replicon luciferase assay. To evaluate compound efficacy, titrated compounds were transferred to sterile 384-well tissue culture treated plates, and the plates were seeded with HCV replicon cells (50 μL at a density of 2.4×10^3 cells/well) in DMEM containing 4% FBS (final DMSO concentration at 0.5%). After 3 days incubation at 37° C., cells were analyzed for Renilla Luciferase activity using the EnduRen substrate (Promega cat #E6485) according to the manufacturer's directions. Briefly, the EnduRen substrate was diluted in DMEM and then added to the plates to a final concentration of 7.5 μM. The plates were incubated for at least 1 h at 37° C. then read on a Viewlux Imager (PerkinElmer) using a luminescence program. The 50% effective concentration (EC50) was calculated using the four-parameter logistic formula noted above.

Compared with `CCN(CC)c1cc2oc(-c3ccc(F)cc3)c(C(=O)NC)c2cc1-c1cccc(C(=O)NC(CO)(CO)CO)c1` [Compound 3005], `CCN(CC)c1cc2oc(-c3ccc(F)cc3)c(C(=O)NC)c2cc1-c1cccc(C(=O)NCS(=O)(=O)O)c1` [Compound 1040] is higher in EC50: under 100 nM for the first, over 1000 nM for the second. The first is the more potent here.

`CCN(c1cc2oc(-c3ccc(F)cc3)c(C(=O)NC)c2cc1-c1cccc(C(=O)NC2(C(F)(F)F)CCCC2)c1)S(C)(=O)=O` [Compound 5002] and `CCN(CC)c1cc2oc(-c3ccc(F)cc3)c(C(=O)NC)c2cc1-c1cccc(C(=O)NCCC2(O)CCCC2)c1` [Compound 1002] cannot be ordered by EC50: 7 nM for the first, under 100 nM for the second.

`CCN(CC)c1cc2oc(-c3ccc(F)cc3)c(C(=O)NC)c2cc1-c1cccc(C(=O)N[C@@]23C[C@@H]4C[C@@H](C[C@@](O)(C4)C2)C3)c1` [Compound 1034] and `CCN(CC)c1cc2oc(-c3ccc(F)cc3)c(C(=O)NC)c2cc1-c1cccc(C(=O)NC(C)[C@@]23C[C@@H]4C[C@@H](C[C@@](O)(C4)C2)C3)c1` (some centres unmarked) [Compound 1033] cannot be ordered by EC50: under 100 nM for the first, under 100 nM for the second.

Compared with `CCN(CC)c1cc2oc(-c3ccc(F)cc3)c(C(=O)NC)c2cc1-c1cccc(C(=O)NCC2(CO)COC2)c1` [Compound 1037], `CCOP(=O)(O)CCCNC(=O)c1cccc(-c2cc3c(C(=O)NC)c(-c4ccc(F)cc4)oc3cc2N(CC)CC)c1` [Compound 2003] is higher in EC50: under 100 nM for the first, over 1000 nM for the second. The first is the more potent here.

Going from `CNC(=O)c1c(-c2ccc(F)cc2)oc2cc([N+](=O)[O-])c(-c3cccc(C(=O)N(Cc4ccc(OC)cc4OC)C(CO)(CO)CO)c3)cc12` [Compound 3002] to `CCN(c1cc2oc(-c3ccc(F)cc3)c(C(=O)NC)c2cc1-c1cccc(C(=O)NC2(C#N)CCc3cc(OC)ccc3C2)c1)S(C)(=O)=O` (centres unmarked) [Compound 5006], the EC50 falls from over 1000 nM to under 100 nM. The second is the more potent here.

`CNC(=O)c1c(-c2ccc(F)cc2)oc2cc(N(CC3CC3)S(C)(=O)=O)c(-c3cccc(C(=O)NC(C)(C)C=O)c3)cc12` [Compound 6001] and `CCNc1cc2oc(-c3ccc(F)cc3)c(C(=O)NC)c2cc1-c1cccc(C(=O)NC2CCNC2=O)c1` (centres unmarked) [Compound 4001] cannot be ordered by EC50: under 100 nM for the first, 58.8 nM for the second.

Tested on: HCV
Assay: not given
Conditions: extended dosing of the combination regimens; cited from earlier work

For `CNC(=O)c1c(-c2ccc(F)cc2)oc2cc(N(CCO)S(C)(=O)=O)c(C3CC3)cc12` [HCV-796], the hepatic toxicity is given as “hepatic toxicity observed”.

Same assay, conditions: single agent or combined with interferon and ribavirin; cited from earlier work

For `CNC(=O)c1c(-c2ccc(F)cc2)oc2cc(N(CCO)S(C)(=O)=O)c(C3CC3)cc12` [HCV-796], the “HCV RNA levels in patients” value is given as “reduce HCV RNA levels”.
